# In PMC12051620, “Molecular basis underlying the specificity of an antagonist AA92593 for mammalian melanopsins” (The Journal of Biological Chemistry, 2025):
# Experiments:
# Assay in all cases: GsX GloSensor assay with Gsα/q11
# Format in all cases: cell-based
# [1] = test system: mouse melanopsin S269^6.52A mutant; conditions: 16.7 μM AA92593, COS-1 cells
# [2] = test system: human melanopsin L207^5.42A mutant; conditions: 16.7 μM AA92593, COS-1 cells
# Procedure: (§1) Based on the docking and MD simulations of human melanopsin with AA92593, importance of the interactions of Trp-189^ECL2 and Leu-207^5.42 with the antagonist was experimentally examined using the GsX GloSensor assay. To validate the interaction between Trp-189^ECL2 and AA92593, substitutions of W189^ECL2F, W189^ECL2I, or W189^ECL2V in human melanopsin were tested. […] To assess the importance of Leu-207^5.42 in the interaction with AA92593, substitutions L207^5.42V, L207^5.42A, or L207^5.42F in human melanopsin were tested. […] Of note, the L207^5.42F substitution enhanced the sensitivity (∼8%) of human melanopsin to AA92593 (Fig. 5F), although the difference was not statistically significant (Fig. 5H). Dose-dependent curve of reduction in the GsX GloSensor signals of the L207^5.42F was shifted by ∼0.6 μM from the curve of WT (Fig. 5I). The introduction of a Phe residue at position 207^5.42 caused additional interactions between the phenyl ring in Phe-207^5.42 and some functional groups in AA92593. The marked changes in the antagonistic effects of Trp-189^ECL2 and Leu-207^5.42 substitutions are consistent with our molecular simulations, showing that these residues are located at the antagonist-binding site (Fig. 4B).
# (§2) For GloSensor assay, opsins, GloSensor assay sensor (coded by pGlo-22F), and NanoBiT-tagged G proteins were transiently expressed in COS-1 cells (kindly provided from Dr David Farrens, Oregon Health and Science University) using PEI as described previously ([24], [52]). For the GsX GloSensor assay ([12], [13]), each well of a 96-well assay plate (Corning) was transfected with 50 ng opsin plasmid, 16.7 ng G protein plasmid, 50 ng pGlo-22F plasmid (Promega), and 500 ng PEI in 25 μl Opti-mem and 75 μl Dulbecco's modified Eagle's medium (D-MEM). For NanoBiT G protein dissociation assay, each well of a 96-well assay plate was transfected with 50 ng opsin plasmid, 5 ng Lg-BiT inserted Gqα (Gqα-LgBiT) plasmid, 25 ng Gβ1 plasmid, 25 ng Sm-BiT fused Gγ2 plasmid, 5 ng RIC8A plasmid, and 500 ng PEI in 25 μl Opti-mem and 75 μl D-MEM. For GFP-fluorescence microscopy, a 35-mm cell culture dish (IWAKI) was transfected with 2 μg melanopsin-GFP plasmid and 8 μg PEI in 400 μl Opti-mem and 1.2 ml D-MEM. For melanopsin purification, ten of 100-mm cell culture dishes (NEST) were transfected with 150 μg melanopsin plasmid and 500 μg PEI in 25 ml Opti mem and 75 ml D-MEM.
# (§3) The transfected COS-1 cells were incubated at 37 °C, 5% CO2 for 2 days, and the medium was aspirated and exchanged with 50 μl of HBSS (145 mM NaCl, 10 mM D-glucose, 5 mM KCl, 1 mM MgCl2, 1.7 mM CaCl2, 1.5 mM NaHCO3, 10 mM Hepes, pH 7.4), containing 33.3, 20, 10, 2, 0.2, 0.02, 0.002, or 0 μM AA92593, 0.5% dimetyl sulfoxide (DMSO), and 4% (vol/vol) GloSensor cAMP reagent stock solution. Under our experimental conditions, >50 μM AA92593 was not fully dissolved in the HBSS solution, and we set maximal concentration of AA92593 (Glixx Laboratories) at 33.3 μM (final concentration of 16.7 μM, see below). Then, the cells were incubated at room temperature for 1 h, and luminescence changes were monitored. After incubation of the cells with AA92593, luminescence measurement was interrupted, the plate was ejected, and the cells were added with 50 μl of HBSS containing 0.2 μM 9-cis-retinal. The final exogenous AA92593 concentrations were 16.7, 10, 5, 1, 0.1, 0.01, 0.001, or 0 μM, and retinal concentration was 0.1 μM. Twenty millimolars of stock solution of AA92593 was prepared in DMSO, and final concentration of DMSO was kept at 0.25% regardless final AA92593 concentration. Then, the cells were incubated at room temperature for 1 h. Luminescence was measured using GM-2000 or GM-3510 microplate reader (Promega). Luminescence level of each well was measured every 30 s with integration time of 0.6 to 0.9 s. […]
# [3] = molecular target: T1, human melanopsin L207^5.42F mutant (Homo sapiens, UniProt Q9UHM6, L239F)
# T1 construct: the C-terminal amino acid residues (94, 140, 200, 214, 296, and 308 residues); expressed in transfected cells; host or cells: COS-1
# T1 sequence (Q9UHM6 1-384 L239F limits assumed): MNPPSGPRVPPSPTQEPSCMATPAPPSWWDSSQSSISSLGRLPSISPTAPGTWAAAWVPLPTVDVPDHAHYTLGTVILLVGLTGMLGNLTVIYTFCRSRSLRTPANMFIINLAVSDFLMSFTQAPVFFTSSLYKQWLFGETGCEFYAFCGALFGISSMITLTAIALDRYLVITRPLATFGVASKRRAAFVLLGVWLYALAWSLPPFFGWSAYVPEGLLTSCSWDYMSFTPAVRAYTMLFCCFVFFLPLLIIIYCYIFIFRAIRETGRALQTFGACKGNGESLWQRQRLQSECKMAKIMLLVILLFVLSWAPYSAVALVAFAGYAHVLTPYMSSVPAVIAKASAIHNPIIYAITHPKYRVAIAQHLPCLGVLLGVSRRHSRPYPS
# Procedure: as §1, §2, §3
# [4] = test system: human melanopsin L207^5.42V mutant; conditions: 16.7 μM AA92593, COS-1 cells
# Procedure: as §1, §2, §3
# [5] = test system: human melanopsin W189^ECL2F mutant; conditions: 16.7 μM AA92593, COS-1 cells
# Procedure: as §1, §2, §3
# [6] = molecular target: T2, human melanopsin W189^ECL2I mutant (Homo sapiens, UniProt Q9UHM6, W223I); conditions: 16.7 μM AA92593, COS-1 cells
# T2 construct: expressed in transfected cells; host or cells: COS-1
# T2 sequence (Q9UHM6 1-384 W223I limits assumed): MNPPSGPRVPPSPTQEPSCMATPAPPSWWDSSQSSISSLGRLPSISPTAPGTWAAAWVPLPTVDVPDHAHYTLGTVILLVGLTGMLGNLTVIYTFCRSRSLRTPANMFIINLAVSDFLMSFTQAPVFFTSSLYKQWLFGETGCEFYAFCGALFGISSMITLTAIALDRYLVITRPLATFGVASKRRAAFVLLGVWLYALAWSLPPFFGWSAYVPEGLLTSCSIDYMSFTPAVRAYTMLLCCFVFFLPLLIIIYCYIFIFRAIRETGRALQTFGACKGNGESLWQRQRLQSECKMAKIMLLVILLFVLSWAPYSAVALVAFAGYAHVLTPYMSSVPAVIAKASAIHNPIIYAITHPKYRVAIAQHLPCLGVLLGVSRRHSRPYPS
# Procedure: as §1, §2, §3
# [7] = molecular target: T3, human melanopsin W189^ECL2V mutant (Homo sapiens, UniProt Q9UHM6, W223V); conditions: 16.7 μM AA92593, COS-1 cells
# T3 construct: expressed in transfected cells; host or cells: COS-1
# T3 sequence (Q9UHM6 1-384 W223V limits assumed): as the sequence (Q9UHM6 1-384 W223I limits assumed) above, with I223V counted along it
# Procedure: as §1, §2, §3
# [8] = relative peak cAMP response vs no AA92593
structure (smiles),measurement,setting,value
COc1ccc(S(=O)(=O)N2CCCCC2)cc1C [AA92593],reduction of the antagonistic effect of AA92593 vs WT,[1],~25%
same,reduced antagonistic effect of AA92593 vs WT,[2],~12%
same,Hill fitting parameter rate of dose-response curve,[3],−0.88 ± 0.29
same,enhanced sensitivity to AA92593 vs WT,"[3]; 16.7 μM AA92593, COS-1 cells, Gsα/q11, difference not statistically significant",~8%
same,IC50,"[3]; COS-1 cells, n = 3, read-out: IC50, reduction in peak cAMP responses upon Gsα/q11 activation",350 ± 160 nM
same,Hill fitting parameter max of dose-response curve,[3]; [8],98.88 ± 4.88
same,Hill fitting parameter min of dose-response curve,[3]; [8],3.15 ± 9.9
same,reduced antagonistic effect of AA92593 vs WT,[4],~15%
same,decrease in sensitivity to AA92593 vs WT,[5],~60%
same,inhibitory effect of AA92593 compared to WT,[6],significantly weaker
same,inhibitory effect of AA92593 compared to WT,[7],significantly weaker
